Reference: US9108921B2, “Therapeutic compounds and compositions” (AGIOS PHARMACEUTICALS, INC, priority 2014, dated 2015)

How the values were obtained:
PKR R510Q = PKR R510Q (Homo sapiens, UniProt P30613, R510Q); test: PKR Mutant Assay, AC50 against PKR R510Q; type: biochemical; settings: mutant PKR R510Q enzyme
Summary of the method: (§1)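 PK-LDH coupled assay, RT. Enzyme + cpd + PEP/NADH/LDH, 60 min pre-incubation, no ADP. ADP 0.22-1.65 mM to initiate; A340 kinetic read. Cpd 11 pts, 3-fold, 100 μM top.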

PKR R532W = PKR R532W (Homo sapiens, UniProt P30613, R532W); test: PKR Mutant Assay, AC50 against PKR R532W; type: biochemical; settings: mutant PKR R532W enzyme
PKR R532W, sequence (P30613 whole entry R532W): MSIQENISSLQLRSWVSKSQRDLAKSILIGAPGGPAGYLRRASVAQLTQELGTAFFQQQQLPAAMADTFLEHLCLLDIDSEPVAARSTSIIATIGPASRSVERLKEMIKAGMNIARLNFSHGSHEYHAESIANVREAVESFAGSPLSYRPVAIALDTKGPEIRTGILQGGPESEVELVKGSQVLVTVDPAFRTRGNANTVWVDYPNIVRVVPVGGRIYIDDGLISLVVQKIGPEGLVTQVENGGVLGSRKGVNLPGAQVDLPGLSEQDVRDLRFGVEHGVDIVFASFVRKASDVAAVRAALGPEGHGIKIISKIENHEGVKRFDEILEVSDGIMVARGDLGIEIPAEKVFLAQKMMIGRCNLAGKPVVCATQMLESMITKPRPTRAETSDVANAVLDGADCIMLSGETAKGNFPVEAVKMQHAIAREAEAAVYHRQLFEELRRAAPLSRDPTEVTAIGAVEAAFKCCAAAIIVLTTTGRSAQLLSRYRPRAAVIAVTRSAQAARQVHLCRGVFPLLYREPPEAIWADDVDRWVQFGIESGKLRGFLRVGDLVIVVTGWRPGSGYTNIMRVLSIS
Summary of the method: as §1

PKR WT [1] = biological target: T1, PKR WT (Homo sapiens, UniProt P30613); test: PKR WT enzymatic AC50 assay; type: biochemical; settings: wild type PKR
T1 sequence (P30613 whole entry): as the sequence (P30613 whole entry R532W) above, with W532R counted along it
Summary of the method: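 LDH-coupled NADH depletion read as A340 change at room temperature after ADP (0.22-1.65 mM) start. Compounds, tested from 100 μM final in 3-fold steps over 11 points with 1% DMSO, sat 60 min with enzyme (80-400 ng/well), PEP 0.1-0.5 mM and NADH 180 uM in Tris pH 7.5/KCl/MgCl2/DTT/BSA buffer.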

PKR WT [2] = biological target: T1, PKR WT; test: PKR WT cell based AC50 assay; settings: wild type PKR

PKR R510Q, sequence (P30613 whole entry R510Q): as the sequence (P30613 whole entry R532W) above, with R510Q, W532R counted along it

SMILES	AC50 (PKR R510Q)	AC50 (PKR R532W)	AC50 (PKR WT [1])	AC50 (PKR WT [2])
O=C(c1ccc(NS(=O)(=O)c2cccc3scnc23)cc1)N1CCC(O)(c2ccccc2Cl)CC1 [Compound 155, N-(4-(4-(2-chlorophenyl)-4-hydroxypiperidine-1-carbonyl)phenyl)benzo[d]thiazole-4-sulfonamide]	101 to 1000 nM	< 100 nM	< 100 nM	< 100 nM
O=C(c1ccc(NS(=O)(=O)c2cccc3cccnc23)cc1)N1CCC(O)(Cc2cccc(F)c2F)CC1 [Compound 169, N-(4-(4-(2,3-difluorobenzyl)-4-hydroxypiperidine-1-carbonyl)phenyl)quinoline-8-sulfonamide]	101 to 1000 nM	< 100 nM	< 100 nM	< 100 nM
O=C(c1ccc(NS(=O)(=O)c2cccc3nccnc23)cc1)N1CCC(O)(c2ccccc2Cl)CC1 [Compound 162, N-(4-(4-(2-chlorophenyl)-4-hydroxypiperidine-1-carbonyl)phenyl)quinoxaline-5-sulfonamide]	101 to 1000 nM	< 100 nM	< 100 nM	< 100 nM
O=C(c1ccc(NS(=O)(=O)c2cccc3cccnc23)cc1)N1CCC(O)(c2ccncc2Cl)CC1 [Compound 161, N-(4-(4-(3-chloropyridin-4-yl)-4-hydroxypiperidine-1-carbonyl)phenyl)quinoline-8-sulfonamide]	101 to 1000 nM	< 100 nM	< 100 nM	< 100 nM
O=C(c1ccc(NS(=O)(=O)c2cccc3cccnc23)cc1)N1CCC(O)(c2ccc(F)cc2Cl)CC1 [Compound 111, N-[4-[4-(2-chloro-4-fluoro-phenyl)-4-hydroxy-piperidine-1-carbonyl]phenyl]quinoline-8-sulfonamide]	< 100 nM	< 100 nM	< 100 nM	< 100 nM
Cc1cc(C(=O)N2CCC(O)(c3ccccc3Cl)CC2)ccc1NS(=O)(=O)c1cccc2cccnc12 [Compound 104, N-(4-(4-(2-chlorophenyl)-4-hydroxypiperidine-1-carbonyl)-2-methylphenyl)quinoline-8-sulfonamide]	< 100 nM	< 100 nM	< 100 nM	< 100 nM
O=C(c1ccc(NS(=O)(=O)c2cccc3cccnc23)cc1)N1CCC(O)(c2cccc(F)c2Cl)CC1 [Compound 123, N-[4-[4-(2-chloro-3-fluoro-phenyl)-4-hydroxy-piperidine-1-carbonyl]phenyl]quinoline-8-sulfonamide]	< 100 nM	< 100 nM	< 100 nM	< 100 nM
O=C(c1ccc(NS(=O)(=O)c2cccc3cccnc23)cc1)N1CCC(O)(c2ccccc2)CC1 [Compound 156, N-(4-(4-hydroxy-4-phenylpiperidine-1-carbonyl)phenyl)quinoline-8-sulfonamide]	101 to 1000 nM	< 100 nM	< 100 nM	< 100 nM
O=C(c1ccc(NS(=O)(=O)c2cccc3cc(F)cnc23)cc1)N1CCC(O)(Cc2ccccc2)CC1 [Compound 128, N-(4-(4-benzyl-4-hydroxypiperidine-1-carbonyl)phenyl)-3-fluoroquinoline-8-sulfonamide]	< 100 nM	< 100 nM	< 100 nM	< 100 nM
CCCC1(O)CCN(C(=O)c2ccc(NS(=O)(=O)c3cccc4cccnc34)cc2)CC1 [Compound 183, N-(4-(4-hydroxy-4-propylpiperidine-1-carbonyl)phenyl)quinoline-8-sulfonamide]	101 to 1000 nM	< 100 nM	< 100 nM	< 100 nM
Cc1nc(C2(O)CCN(C(=O)c3ccc(NS(=O)(=O)c4cccc5cccnc45)cc3)CC2)ccc1F [Compound 171, N-(4-(4-(5-fluoro-6-methylpyridin-2-yl)-4-hydroxypiperidine-1-carbonyl)phenyl)quinoline-8-sulfonamide]	101 to 1000 nM	< 100 nM	< 100 nM	101 to 1000 nM

Next, values leading:

AC50 (PKR R510Q)	AC50 (PKR R532W)	AC50 (PKR WT [1])	AC50 (PKR WT [2])	SMILES
101 to 1000 nM	< 100 nM	101 to 1000 nM	< 100 nM	CC(C)(F)CC1(O)CCN(C(=O)c2ccc(NS(=O)(=O)c3cccc4scnc34)cc2)CC1 [Compound 403, N-(4-(4-(2-fluoro-2-methylpropyl)-4-hydroxypiperidine-1-carbonyl)phenyl)benzo[d]thiazole-4-sulfonamide]
< 100 nM	< 100 nM	< 100 nM	< 100 nM	CC(C)CC1(O)CCN(C(=O)c2ccc(NS(=O)(=O)c3cccc4sc(N)nc34)cc2)CC1 [Compound 406, 2-amino-N-(4-(4-hydroxy-4-isobutylpiperidine-1-carbonyl)phenyl)benzo[d]thiazole-4-sulfonamide]
101 to 1000 nM	101 to 1000 nM	< 100 nM	101 to 1000 nM	O=C(c1ccc(NS(=O)(=O)c2cccc3cccnc23)cc1)N1CCC(O)(c2cccnc2F)CC1 [Compound 217, N-(4-(4-(2-fluoropyridin-3-yl)-4-hydroxypiperidine-1-carbonyl)phenyl)quinoline-8-sulfonamide]
101 to 1000 nM	< 100 nM	< 100 nM	< 100 nM	N#Cc1cc(NS(=O)(=O)c2cccc3cccnc23)ccc1C(=O)N1CCC(O)(c2ccccc2Cl)CC1 [Compound 209]
1010 to 10000 nM	101 to 1000 nM	101 to 1000 nM	1010 to 10000 nM	CCOC(=O)C1(CC(C)C)CCN(C(=O)c2ccc(NS(=O)(=O)c3cccc4cccnc34)cc2)CC1 [Compound 250, Ethyl 4-isobutyl-1-(4-(quinoline-8-sulfonamido)benzoyl)piperidine-4-carboxylate]
101 to 1000 nM	< 100 nM	< 100 nM	< 100 nM	O=C(c1ccc(NS(=O)(=O)c2cccc3cccnc23)cc1F)N1CCC(O)(c2ccccc2Cl)CC1 [Compound 193, N-(4-(4-(2-chlorophenyl)-4-hydroxypiperidine-1-carbonyl)-3-fluorophenyl)quinoline-8-sulfonamide]
< 100 nM	< 100 nM	< 100 nM	101 to 1000 nM	O=C(c1ccc(NS(=O)(=O)c2cccc3scnc23)cc1)N1CCC(O)(/C=C/CC(F)(F)F)CC1 [Compound 404, (E)-N-(4-(4-hydroxy-4-(4,4,4-trifluorobut-1-enyl)piperidine-1-carbonyl)phenyl)benzo[d]thiazole-4-sulfonamide]
101 to 1000 nM	< 100 nM	< 100 nM	101 to 1000 nM	O=C(c1ccc(NS(=O)(=O)c2cccc3scnc23)cc1)N1CCC(O)(Cc2ccccc2C(F)(F)F)CC1 [Compound 412, N-(4-(4-hydroxy-4-(2-(trifluoromethyl)benzyl)piperidine-1-carbonyl)phenyl)benzo[d]thiazole-4-sulfonamide]
1010 to 10000 nM	< 100 nM	< 100 nM	< 100 nM	CS(=O)(=O)c1ccccc1C1(O)CCN(C(=O)c2ccc(NS(=O)(=O)c3cccc4cccnc34)cc2)CC1 [Compound 192, N-[4-[4-hydroxy-4-(2-methylsulfonylphenyl)piperidine-1-carbonyl]phenyl]quinoline-8-sulfonamide]
< 100 nM	< 100 nM	< 100 nM	< 100 nM	O=C(c1ccc(NS(=O)(=O)c2cccc3nccnc23)cc1)N1CCC(O)(CCC=C(F)F)CC1 [Compound 399, N-(4-(4-(4,4-difluorobut-3-en-1-yl)-4-hydroxypiperidine-1-carbonyl)phenyl)quinoxaline-5-sulfonamide]
101 to 1000 nM	< 100 nM	< 100 nM	101 to 1000 nM	O=C(c1ccc(NS(=O)(=O)c2cccc3scnc23)cc1)N1CCC(O)(CC2CC2(F)F)CC1 (stereo not drawn) [Compound 432]
101 to 1000 nM	< 100 nM	< 100 nM	< 100 nM	CC(C)C1(O)CCN(C(=O)c2ccc(NS(=O)(=O)c3cccc4cccnc34)cc2)CC1 [Compound 214, N-(4-(4-hydroxy-4-isopropylpiperidine-1-carbonyl)phenyl)quinoline-8-sulfonamide]
< 100 nM	< 100 nM	< 100 nM	< 100 nM	O=C(c1ccc(NS(=O)(=O)c2cccc3scnc23)cc1)N1CCC(O)(CCCC(F)F)CC1 [Compound 389, N-(4-(4-(4,4-difluorobutyl)-4-hydroxypiperidine-1-carbonyl)phenyl)benzo[d]thiazole-4-sulfonamide]
101 to 1000 nM	< 100 nM	101 to 1000 nM	< 100 nM	Cn1cc(C2(O)CCN(C(=O)c3ccc(NS(=O)(=O)c4cccc5scnc45)cc3)CC2)cn1 [Compound 411, N-[4-[4-hydroxy-4-(1-methylpyrazol-4-yl)piperidine-1-carbonyl]phenyl]benzothiazole-4-sulfonamide]
< 100 nM	< 100 nM	< 100 nM	< 100 nM	CNc1nc2c(S(=O)(=O)Nc3ccc(C(=O)N4CCC(O)(CC(C)C)CC4)cc3)cccc2s1 [Compound 408, N-(4-(4-hydroxy-4-isobutylpiperidine-1-carbonyl)phenyl)-2-(methylamino)benzo[d]thiazole-4-sulfonamide]
101 to 1000 nM	101 to 1000 nM	< 100 nM	< 100 nM	Nc1c(O)cccc1S(=O)(=O)Nc1ccc(C(=O)N2CCC(O)(c3ccccc3Cl)CC2)cc1 [Compound 382, 2-amino-N-(4-(4-(2-chlorophenyl)-4-hydroxypiperidine-1-carbonyl)phenyl)-3-hydroxybenzenesulfonamide]
